# Values of other authors, collected in patent US20250170148A1, “NEUROACTIVE STEROIDS FOR TREATMENT OF GASTROINTESTINAL DISEASES OR CONDITIONS” (Sage Therapeutics, Inc., priority 2022, published 2025).
# “Also recorded” adds a separate entry of the source. Like-named read-outs stand apart in the source and are kept apart here.
# Experiments:
# [1] = tested on: patients with major depressive disorder; details: meta-analysis; for rate of gastrointestinal adverse reactions compared to placebo: 15 most commonly used antidepressants in MDD; for gastrointestinal tolerability among antidepressants: patients with MDD
Structure (SMILES),rate of gastrointestinal adverse reactions compared to placebo [1],also measured
CNCCC(Oc1ccc(C(F)(F)F)cc1)c1ccccc1 (centres unmarked) [fluoxetine],higher rates of gastrointestinal adverse reactions compared to placebo,
COc1ccc(C(CN(C)C)C2(O)CCCCC2)cc1 (centres unmarked) [venlafaxine],higher rates of gastrointestinal adverse reactions compared to placebo,rates of nausea and vomiting (compared to SSRIs and duloxetine): higher rates of nausea and vomiting
CNCC[C@H](Oc1cccc2ccccc12)c1cccs1 [duloxetine],higher rates of gastrointestinal adverse reactions compared to placebo,
COCCCC/C(=N\OCCN)c1ccc(C(F)(F)F)cc1 [fluvoxamine],higher rates of gastrointestinal adverse reactions compared to placebo,
CN1CCN2c3ncccc3Cc3ccccc3C2C1 (centres unmarked) [mirtazapine],higher rates of gastrointestinal adverse reactions compared to placebo,
Fc1ccc([C@@H]2CCNC[C@H]2COc2ccc3c(c2)OCO3)cc1 [paroxetine],higher rates of gastrointestinal adverse reactions compared to placebo,
CC(NC(C)(C)C)C(=O)c1cccc(Cl)c1 (centres unmarked) [bupropion],higher rates of gastrointestinal adverse reactions compared to placebo,
CN(C)CCC[C@@]1(c2ccc(F)cc2)OCc2cc(C#N)ccc21 [escitalopram],higher rates of gastrointestinal adverse reactions compared to placebo,gastrointestinal tolerability among antidepressants [1]: least tolerated antidepressants on the gastrointestinal tract; gastrointestinal tolerability among antidepressants ([1]; listed as Escitalopram): least tolerated antidepressants on the GI tract
Cc1ccc(Sc2ccccc2N2CCNCC2)c(C)c1 [vortioxetine],higher rates of gastrointestinal adverse reactions compared to placebo,
CCN(CC)C(=O)[C@@]1(c2ccccc2)C[C@H]1CN [levomilnacipran],higher rates of gastrointestinal adverse reactions compared to placebo,
CN(C)CC(c1ccc(O)cc1)C1(O)CCCCC1 (centres unmarked) [desvenlafaxine],higher rates of gastrointestinal adverse reactions compared to placebo,
CCOc1ccccc1OC(c1ccccc1)C1CNCCO1 (centres unmarked) [reboxetine],higher rates of gastrointestinal adverse reactions compared to placebo,
CN[C@H]1CC[C@@H](c2ccc(Cl)c(Cl)c2)c2ccccc21 [sertraline],higher rates of gastrointestinal adverse reactions compared to placebo,gastrointestinal tolerability among antidepressants [1]: least tolerated antidepressants on the gastrointestinal tract; also recorded: least tolerated antidepressants on the GI tract; incidence of diarrhea (compared to other SSRIs and venlafaxine): higher incidence of diarrhea
CN(C)CCCC1(c2ccc(F)cc2)OCc2cc(C#N)ccc21 (centres unmarked) [citalopram],higher rates of gastrointestinal adverse reactions compared to placebo,
COc1ccc2cccc(CCNC(C)=O)c2c1 [agomelatine],higher rates of gastrointestinal adverse reactions compared to placebo,
